Data reported in patent publication US20260184669A1, “LIPID COMPOUND AND COMPOSITION FOR DELIVERY OF ACTIVE SUBSTANCE” (KOREA RESEARCH INSTIUTE OF BIOSCIENCE AND BIOTECHNOLOGY, priority 2022, published 2026).

Experiments:
[1] = Size, polydispersity index and surface charge of mRNA-LNP (Malvern Zetasizer Nano ZS90); format: physicochemical; details: for PDI / size (nm) Number: mRNA-LNP made with the ionizable lipid at its optimal formulation (Table 2); for size (nm) Number: diluted with PBS to 1 μg/mL mRNA; for Zeta (mV): surface charge of mRNA-LNP made with the ionizable lipid at its optimal formulation (Table 2)
Description: Each mRNA-LNPs produced in Example 27 was diluted with PBS to a final mRNA concentration of 1 μg/mL. The size, polydispersity index (PDI), and surface charge of the mRNA-LNPs were then measured using a Malvern Zetasizer Nano ZS90 (Malvern Instruments, UK).
For particles intended for systemic administration, such as via blood vessels, the particle size must be less than 200 nm in order to pass through the endothelial capillaries of the liver. In addition, the size distribution is considered uniform only when the PDI is 0.3 or less, which enables consistent and efficient therapeutic effects (Non-patent document 3 [Danaei, M. et al). Pharmaceutics 2018, 10, 57]).

[2] = mRNA encapsulation efficiency (Quant-IT RiboGreen RNA assay); format: physicochemical; details: mRNA encapsulation efficiency of mRNA-LNP made with the ionizable lipid; average of two measurements
Description: The mRNA encapsulation efficiency (EE, %) of LNPs containing mRNA was measured using the Quant-IT™ RiboGreen® RNA assay kit (Invitrogen, USA).
The diluted samples were added to each well of a 96-well plate. Group A (without Triton X-100) was supplemented with 50 μL of 1×TE buffer, while Group B (with Triton X-100) was supplemented with 50 μL of 1×TE buffer containing 2% Triton-X 100. To release the encapsulated mRNA, the LNPs were treated with Triton-X 100 and incubated at 37° C. for 10 minutes. Subsequently, 100 μL of ribogreen reagent was added to each well. The fluorescence intensities of Group A and Group B were measured using a multi-plate reader (λex 480 nm, λem 520 nm), and mRNA encapsulation efficiency (%) was calculated using Equation 1 below. The encapsulation efficiency for each LNP was determined as the average of two independent measurements.

female C57BL/6 mice = experiment: Protein expression efficiency of fLuc mRNA-LNPs after intramuscular injection (IVIS whole-body luminescence); format: in vivo; details: for Total flux 1 hour / Total flux 3 hours / Total flux 6 hours / Total flux 48 hours / Total flux 72 hours / Total flux: fLuc mRNA-LNP, intramuscular injection, luminescence at injection site, mice; for Total flux 1 hour: 1 hour after administration; for Total flux 3 hours: 3 hours after administration; for Total flux 6 hours: 6 hours after administration; for Total flux 48 hours: 48 hours after administration; for Total flux 72 hours: 72 hours after administration; for Total flux: after administration; for Fold increase in total flux at 3 h, MC3: relative to control LNP formulated with MC3; for Fold increase in total flux at 3 h, MC3 / Fold increase in total flux at 3 h, SM-102: 3 hours after intramuscular injection; for Fold increase in total flux at 3 h, SM-102: relative to control LNP formulated with SM-102
Description: fLuc mRNA-LNPs formulated using various ionizable lipids were prepared according to the method described in Example 27 and administered in vivo via intramuscular (I. M.) or intravenous (IV.) injection to compare the resulting protein expression efficiency in vivo. As a control, EGFP mRNA-LNPs formulated with commercially available ionizable lipids MC3 or SM-102 were used. All mRNA-LNPs were administered at equal mRNA doses per body weight across different concentration groups (n≥4).
Specifically, the dose of mRNA-LNPs was adjusted to 0.1-0.5 mg/kg of body weight, and the formulation was administered via I.M. or I.V. injection to female C57BL/6 mice (6-10 weeks old, Orient Bio, Korea) Subsequently, […], whole-body luminescence images were acquired using an in vivo imaging system (IVIS Lumina III, PerkinElmer, Walzam, MA, USA). To assess protein expression levels, 200 μL of D-luciferin (15 mg/mL) was administered via intraperitoneal (I.P.) injection 10 minutes prior to imaging. During image acquisition, the animals were anesthetized by inhalation of 3% isoflurane in 97% medical grade oxygen. In addition, the acquired luminescence images were quantitatively analyzed using imaging software (Living Image Software Version 4.4; PerkinElmer, USA).
After intramuscular injection of the fLuc mRNA-LNPs, the luminescence intensity at the injection site was measured over time.
Furthermore, the luminescence intensity at the injection site 3 hours after intramuscular injection was measured, and the relative protein expression efficiency was compared to that of control LNPs formulated with MC3 or SM-102.

[3] = Stability of mRNA-LNPs according to storage temperature and duration; format: physicochemical; details: for Normalized EE % D-1 / Size (nm) D-1 / PDI D-1: day 1; for Normalized EE % D-7 / PDI D-7 / Size (nm) D-7: day 7; for Normalized EE % D-30 / PDI D-30 / Size (nm) D-30: day 30
Description: Stability of fLuc mRNA-LNPs produced using various ionizable lipids according to the method of Example 27, was assessed by storing the LNPs at 4° C. and 25° C. At 1, 7, and 30 days post-manufacture, the size, PDI, and encapsulation efficiency (EE) of each mRNA-LNPs samples were measured using the methods described in Experimental Examples 2 and 3.

[4] = test system: CCL2 mRNA level in HEK-293T cells; details: human
[5] = test system: CCL3 mRNA level in HEK-293T cells; details: human
[6] = test system: IL-1β mRNA level in HEK-293T cells; details: human
[7] = test system: IL-6 mRNA level in HEK-293T cells; details: human

Row | Structure (SMILES) | PDI [1] | size (nm) Number [1] [nm] | Zeta (mV) [1] [mV] | EE (%) [2] [%] | Total flux 1 hour (female C57BL/6 mice) | Total flux 3 hours (female C57BL/6 mice) | Total flux 6 hours (female C57BL/6 mice) | Total flux 48 hours (female C57BL/6 mice) | Total flux 72 hours (female C57BL/6 mice) | Total flux (female C57BL/6 mice) | Fold increase in total flux at 3 h, MC3 (female C57BL/6 mice) | Fold increase in total flux at 3 h, SM-102 (female C57BL/6 mice) | Normalized EE % D-1 ([3]; fLuc mRNA-LNP stored at 4° C.) [%] | Size (nm) D-1 ([3]; fLuc mRNA-LNP stored at 4° C.) [nm] | Normalized EE % D-7 ([3]; fLuc mRNA-LNP stored at 4° C.) [%] | PDI D-7 ([3]; fLuc mRNA-LNP stored at 4° C.) | Size (nm) D-7 ([3]; fLuc mRNA-LNP stored at 4° C.) [nm] | Normalized EE % D-30 ([3]; fLuc mRNA-LNP stored at 4° C.) [%] | PDI D-30 ([3]; fLuc mRNA-LNP stored at 4° C.) | Size (nm) D-30 ([3]; fLuc mRNA-LNP stored at 4° C.) [nm] | also measured
1 | CCCCCCCCCCCOC(=O)CCCCCN(CCCCCCCC(=O)OC(CCCCCCCC)CCCCCCCC)CC(O)CCCCNC(=O)c1ccc[nH]1 (stereo not shown) [Compound 16, Heptadecan-9-yl 8-((2-hydroxy-6-(1H-pyrrole-2-carboxamido)hexyl)(6-oxo-6-(undecyloxy)hexyl)amino)octanoate] | 0.101 | 132 | −7.87 | 91 | 1.11E+07 | 5.26E+07 | 3.64E+07 | 1.71E+06 | 1.40E+06 | 1.61E+07 | 4.26 | 0.47 | 90.9 | 132.2 | 91.5 | 0.138 | 137.1 | 86.9 | 0.069 | 141.5 | Normalized EE % D-1 ([3]; fLuc mRNA-LNP stored at 25° C.): 90.9%; PDI D-1 ([3]; fLuc mRNA-LNP stored at 25° C.): 0.101; Size (nm) D-1 ([3]; fLuc mRNA-LNP stored at 25° C.): 132.2 nm; Normalized EE % D-7 ([3]; fLuc mRNA-LNP stored at 25° C.): 89.1%; PDI D-7 ([3]; fLuc mRNA-LNP stored at 25° C.): 0.059; Size (nm) D-7 ([3]; fLuc mRNA-LNP stored at 25° C.): 137.7 nm; Normalized EE % D-30 ([3]; fLuc mRNA-LNP stored at 25° C.): 84.4%; PDI D-30 ([3]; fLuc mRNA-LNP stored at 25° C.): 0.093; Size (nm) D-30 ([3]; fLuc mRNA-LNP stored at 25° C.): 145.1 nm; CCL2 Average [4]: 0.79; CCL3 Average [5]: 2.31; IL-1β Average [6]: 0.74; IL-6 Average [7]: 0.97
2 | CCCCCCCCCCCOC(=O)CCCCCN(CCCCCCCC(=O)OC(CCCCCCCC)CCCCCCCC)CC(O)CCCCNC(=O)c1ccn(C)c1 (stereo not shown) [Compound 19, Heptadecan-9-yl 8-((2-hydroxy-6-(1-methyl-1H-pyrrole-3-carboxamido)hexyl) (6-oxo-6-(undecyloxy)hexyl)amino)octanoate] | 0.193 | 185 | −5.68 | 93 | 3.16E+07 | 5.15E+07 | 3.82E+07 | 1.12E+06 | 5.38E+05 | 8.29E+06 | 4.17 | 0.46 | 93.1 | 184.7 | 90.6 | 0.122 | 161.2 | 87.2 | 0.071 | 177.4 | Normalized EE % D-1 ([3]; fLuc mRNA-LNP stored at 25° C.): 93.1%; PDI D-1 ([3]; fLuc mRNA-LNP stored at 25° C.): 0.193; Size (nm) D-1 ([3]; fLuc mRNA-LNP stored at 25° C.): 184.7 nm; Normalized EE % D-7 ([3]; fLuc mRNA-LNP stored at 25° C.): 88.1%; PDI D-7 ([3]; fLuc mRNA-LNP stored at 25° C.): 0.107; Size (nm) D-7 ([3]; fLuc mRNA-LNP stored at 25° C.): 172.5 nm; Normalized EE % D-30 ([3]; fLuc mRNA-LNP stored at 25° C.): 88.3%; PDI D-30 ([3]; fLuc mRNA-LNP stored at 25° C.): 0.159; Size (nm) D-30 ([3]; fLuc mRNA-LNP stored at 25° C.): 171.7 nm; CCL2 Average [4]: 0.91; CCL3 Average [5]: 1.04; IL-1β Average [6]: 1.07; IL-6 Average [7]: 0.89
3 | CCCCCCCCCCCOC(=O)CCCCCN(CCCCCCCC(=O)OC(CCCCCCCC)CCCCCCCC)CC(O)CCCCNC(=O)c1[nH]ccc1O (stereo not shown) [Compound 21, Heptadecan-9-yl 8-((2-hydroxy-6-(3-hydroxy-1H-pyrrole-2-carboxamido)hexyl)(6-oxo-6-(undecyloxy)hexyl)amino)octanoate] | 0.155 | 112 | −4.55 | 92 | 1.98E+07 | 1.29E+08 | 9.56E+07 | 3.51E+06 | 1.66E+06 | 1.25E+07 | 10.42 | 1.14 | – | – | – | – | – | – | – | – | protein expression compared to the control group (SM-102) (female C57BL/6 mice; 3 hours post intramuscular injection, in words): significantly higher protein expression; CCL2 Average [4]: 0.63; CCL3 Average [5]: 1.82; IL-1β Average [6]: 1.18; IL-6 Average [7]: 1.39
4 | CCCCCCCCCCCOC(=O)CCCCCN(CCCCCCCC(=O)OC(CCCCCCCC)CCCCCCCC)CC(O)CCCCNC(=O)c1cnc(O)n1C (stereo not shown) [Compound 40, Heptadecan-9-yl 8-((2-hydroxy-6-(2-hydroxy-1-methyl-1H-imidazole-5-carboxamido)hexyl)(6-oxo-6-(undecyloxy)hexyl)amino)octanoate] | 0.154 | 107 | −1.73 | 92 | 7.92E+06 | 1.50E+07 | 6.60E+06 | 1.10E+06 | 8.29E+05 | 6.46E+05 | 1.22 | 0.13 | 92.3 | 106.8 | 89.0 | 0.106 | 155.6 | 87.5 | 0.044 | 146.2 | Normalized EE % D-1 ([3]; fLuc mRNA-LNP stored at 25° C.): 92.3%; PDI D-1 ([3]; fLuc mRNA-LNP stored at 25° C.): 0.154; Size (nm) D-1 ([3]; fLuc mRNA-LNP stored at 25° C.): 106.8 nm; Normalized EE % D-7 ([3]; fLuc mRNA-LNP stored at 25° C.): 90.9%; PDI D-7 ([3]; fLuc mRNA-LNP stored at 25° C.): 0.112; Size (nm) D-7 ([3]; fLuc mRNA-LNP stored at 25° C.): 146.8 nm; Normalized EE % D-30 ([3]; fLuc mRNA-LNP stored at 25° C.): 89.3%; PDI D-30 ([3]; fLuc mRNA-LNP stored at 25° C.): 0.091; Size (nm) D-30 ([3]; fLuc mRNA-LNP stored at 25° C.): 144.8 nm
